# Data taken from ChEMBL document CHEMBL1147838, “Design, synthesis, and evaluation of phenanthridine derivatives targeting the telomerase RNA/DNA heteroduplex” (Bioorg Med Chem Lett, 2007).
# Assay: Inhibition of telomerase by fluorescence based assay
# Design: species or system Homo sapiens
row,SMILES,IC50 [µM]
1,CC[n+]1c(-c2ccccc2)c2cc(NC(=O)CCCC(=O)O)ccc2c2ccc(N)cc21,> 80
2,CC[n+]1c(-c2ccccc2)c2cc(N)ccc2c2ccc(NC(=O)CCCC(N)=O)cc21,5.6
3,Nc1ccc2c(c1)c(-c1ccccc1)[n+](CCCCCC(=O)O)c1cc(N)ccc21,23.3
4,CC[n+]1c(-c2ccccc2)c2cc(N)ccc2c2ccc(NC(=O)CCCC(=O)O)cc21,> 80
5,NC(=O)CCCCC[n+]1c(-c2ccccc2)c2cc(N)ccc2c2ccc(N)cc21,30.3
6,CC[n+]1c(-c2ccccc2)c2cc(NC(=O)CCCC(N)=O)ccc2c2ccc(N)cc21,68.2
7,NC(=O)c1ccc(C[n+]2c(-c3ccccc3)c3cc(N)ccc3c3ccc(N)cc32)cc1,2.9
8,CC[n+]1c(-c2ccccc2)c2cc(NC(=O)CCCC(=O)O)ccc2c2ccc(NC(=O)CCCC(=O)O)cc21,63.1
9,Nc1ccc2c(c1)c(-c1ccccc1)[n+](Cc1ccc(C(=O)O)cc1)c1cc(N)ccc21,27.3
10,CC[n+]1c(-c2ccccc2)c2cc(NC(=O)CCCC(N)=O)ccc2c2ccc(NC(=O)CCCC(N)=O)cc21,> 80
